Reference: patent publication US20250282764A1, “IMIDAZOLE HETEROCYCLE BASED COMPOUNDS AND METHODS OF TREATING CANCER” (King Abdulaziz University, priority 2024, published 2025)

Legend:
[1] = test system: NB4, HL60, and KG1a leukemia cell lines; details: previous study (Khayat et al.); range over three lines; cited from earlier work
DLD1 = assay: Annexin V apoptosis assay (flow cytometry), DLD1; type: cell-based, human; details: IC50 and 2×IC50, 48 h, vs basal conditions; dose dependent
Method: Apoptosis assay for colorectal carcinoma cell lines model was performed as follows. Cells were cultured in T25 culture flasks at a density of 3×10^5 cells for DLD-1, 4×10^5 cells for HCT116, and 5×10^5 cells for HT29 cells and treated with IC50 and 2×IC50 of compound (Id) for 48 h. The experiments were performed in triplicates. To measure apoptosis, an Annexin V APC staining assay (BD Biosciences, San Jose, CA, USA) was performed according to the manufacturer's recommendations, and 10,000 events were acquired using a FACSAria III flow cytometer (BD Biosciences, San Jose, CA, USA).

NB4 = assay: Annexin V/7AAD apoptosis assay, NB4; type: cell-based, human; details: approximately 2×IC50, 48 h
Method: Apoptosis assay for leukemia cells was performed as follows. Cells were cultured in 6-well plates at a density of 3× 10^5 cells per well and treated with approximately 2×IC50 values of compound (Id) for 48 h. The experiments were performed in duplicates. To measure apoptosis, Annexin V APC and 7AAD staining (BD Biosciences, San Jose, CA, USA) was performed according to the manufacturer's recommendations, and 10,000 events were acquired using a FACSCanto flow cytometer (BD Biosciences, San Jose, CA, USA).

CYP3A4 = biological target: T1, CYP3A4 (Homo sapiens, UniProt P08684); assay: CYP450 3A4 inhibition; type: in vitro ADME; details: recombinant CYP3A4 expressed in insect supersomes, probe testosterone, expressed enzyme, testosterone substrate
T1 construct: purchased Fisher Scientific, Waltham, MA; host or cells: insect cells (supersomes)
Method: (§1) The compound (Id) was assessed for its ability to inhibit the three major human CYP450 enzymes, 3A4, 2D6 and 2C9. Assays were run in triplicate. Expressed enzymes in insect supersomes (Fisher Scientific, Waltham, MA) were used to minimize non-specific binding and membrane partitioning issues. The 3A4 assay uses testosterone as a substrate and analysis was performed by LC/MS/MS on a Waters Xevo TQ instrument as described above using positive electrospray ionization. Assay acceptance criteria was 20% for all standards and 25% for the LLOQ. The 2D6 and 2C9 assays use fluorescent substrates (3-[2-(N,N-diethylamino)ethyl]-7-methoxy-4-methylcoumarin for 2D6; 7-methoxy-4-(trifluoromethyl) coumarin for 2C9) and were analyzed on an Envision plate reader. GraphPad® Prism v 5.04 was used for nonlinear fitting of data to generate IC50 values.

CYP2D6 = biological target: T2, CYP2D6 (Homo sapiens, UniProt P10635); assay: CYP450 2D6 inhibition; type: in vitro ADME; details: recombinant CYP2D6 expressed in insect supersomes, probe 3-[2-(N,N-diethylamino)ethyl]-7-methoxy-4-methylcoumarin, expressed enzyme, fluorescent substrate
T2 construct: purchased Fisher Scientific, Waltham, MA; host or cells: insect cells (supersomes)
Method: as §1

CYP2C9 = biological target: T3, CYP2C9 (Homo sapiens, UniProt P11712); assay: CYP450 2C9 inhibition; type: in vitro ADME; details: recombinant CYP2C9 expressed in insect supersomes, probe 7-methoxy-4-(trifluoromethyl) coumarin, expressed enzyme, fluorescent substrate
T3 construct: purchased Fisher Scientific, Waltham, MA; host or cells: insect cells (supersomes)
Method: as §1

T2 sequence (P10635 whole entry): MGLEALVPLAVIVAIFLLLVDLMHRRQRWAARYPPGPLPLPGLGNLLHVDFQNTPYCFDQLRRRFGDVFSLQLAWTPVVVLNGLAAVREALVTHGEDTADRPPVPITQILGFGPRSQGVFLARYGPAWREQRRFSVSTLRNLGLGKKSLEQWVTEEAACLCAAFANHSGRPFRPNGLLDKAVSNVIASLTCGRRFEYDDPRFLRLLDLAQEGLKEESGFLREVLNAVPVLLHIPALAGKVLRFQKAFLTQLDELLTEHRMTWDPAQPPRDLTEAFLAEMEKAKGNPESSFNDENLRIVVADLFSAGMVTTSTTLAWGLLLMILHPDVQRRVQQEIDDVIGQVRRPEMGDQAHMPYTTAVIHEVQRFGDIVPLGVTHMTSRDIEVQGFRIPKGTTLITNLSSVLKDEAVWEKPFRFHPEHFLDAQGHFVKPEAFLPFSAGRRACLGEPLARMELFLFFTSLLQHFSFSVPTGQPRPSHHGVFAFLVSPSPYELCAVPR
T3 sequence (P11712 whole entry): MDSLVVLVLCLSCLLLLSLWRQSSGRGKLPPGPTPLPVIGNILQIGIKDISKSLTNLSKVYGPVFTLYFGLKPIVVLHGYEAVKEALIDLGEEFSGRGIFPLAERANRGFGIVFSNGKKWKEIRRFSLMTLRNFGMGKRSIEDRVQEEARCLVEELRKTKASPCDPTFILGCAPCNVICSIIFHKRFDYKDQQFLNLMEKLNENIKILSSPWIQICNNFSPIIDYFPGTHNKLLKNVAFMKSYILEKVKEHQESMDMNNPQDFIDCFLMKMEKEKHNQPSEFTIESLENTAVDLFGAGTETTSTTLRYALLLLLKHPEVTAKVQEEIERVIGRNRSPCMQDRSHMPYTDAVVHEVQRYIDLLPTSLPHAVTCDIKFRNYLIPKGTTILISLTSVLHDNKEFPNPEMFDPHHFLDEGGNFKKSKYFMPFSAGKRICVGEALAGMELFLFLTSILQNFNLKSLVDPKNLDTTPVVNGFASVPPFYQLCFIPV
T1 sequence (P08684 whole entry): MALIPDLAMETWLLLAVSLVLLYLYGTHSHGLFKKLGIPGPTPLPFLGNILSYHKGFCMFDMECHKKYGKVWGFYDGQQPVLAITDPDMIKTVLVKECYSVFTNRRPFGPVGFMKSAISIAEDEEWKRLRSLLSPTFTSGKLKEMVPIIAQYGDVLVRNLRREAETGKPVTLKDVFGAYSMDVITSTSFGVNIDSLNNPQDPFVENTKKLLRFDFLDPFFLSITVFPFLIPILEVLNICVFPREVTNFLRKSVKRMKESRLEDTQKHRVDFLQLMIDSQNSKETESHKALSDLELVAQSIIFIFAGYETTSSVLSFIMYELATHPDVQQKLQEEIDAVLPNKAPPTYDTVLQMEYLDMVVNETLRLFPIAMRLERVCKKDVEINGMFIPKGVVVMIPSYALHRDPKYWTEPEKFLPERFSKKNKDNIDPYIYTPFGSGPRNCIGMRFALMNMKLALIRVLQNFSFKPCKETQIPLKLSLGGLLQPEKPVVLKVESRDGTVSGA

SMILES | IC50 [1] | apoptosis in DLD1 cells (DLD1) | apoptosis in NB4 cells (NB4) | IC50 (CYP3A4) | IC50 (CYP2D6) | IC50 (CYP2C9)
COc1ccc(/C=C2\N=C(C)N(c3ccc(CC(=O)NCc4ccccc4)cc3)C2=O)cc1 [KIM-161, reference compound] | 0.275 to 0.893 µM |  |  |  |  | 
CC1=N/C(=C\c2ccc(C)o2)C(=O)N1c1ccc(CC(=O)NCc2ccccc2)cc1 [Compound (Id), 2-Methyl-4-(5-methyl-2-furyl)methylene-1-[4-(benzylaminocarbonylmethyl)phenyl]-5-oxo-1H-imidazole] |  | increased apoptosis | strong apoptosis | > 10 µM | > 10 µM | > 10 µM
